Assay results taken from patent US12692254B2, “Benzimidazole inhibitors of PAD enzymes” (BRISTOL-MYERS SQUIBB COMPANY, priority 2018, dated 2026).

The compounds below were run against human PAD4 (hPAD4) (Homo sapiens, UniProt Q9UM07) (assay: RFMS human PAD4 functional assay (rapid-fire mass spectrum)). Settings: 5 nM hPAD4 enzyme, 250 μM BAEE, 50 μM Calcium; 30 min preincubation, 90 min reaction at 37° C.
Format: biochemical
Method in brief: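 PAD4 (10 nM) preincubated 30 min with compound (top final 50 μM), then BAEE substrate added in pH 7.5 HEPES buffer with DTT, 50 μM calcium, TPEN; 90 min at 37° C. After TCA quench, citrulline derivatized with phenyl glyoxal (4 mM final, 30 min, 37° C) and quantified by RapidFire MS against internal standard.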

Chain of human PAD4 (hPAD4) (Q9UM07 whole entry): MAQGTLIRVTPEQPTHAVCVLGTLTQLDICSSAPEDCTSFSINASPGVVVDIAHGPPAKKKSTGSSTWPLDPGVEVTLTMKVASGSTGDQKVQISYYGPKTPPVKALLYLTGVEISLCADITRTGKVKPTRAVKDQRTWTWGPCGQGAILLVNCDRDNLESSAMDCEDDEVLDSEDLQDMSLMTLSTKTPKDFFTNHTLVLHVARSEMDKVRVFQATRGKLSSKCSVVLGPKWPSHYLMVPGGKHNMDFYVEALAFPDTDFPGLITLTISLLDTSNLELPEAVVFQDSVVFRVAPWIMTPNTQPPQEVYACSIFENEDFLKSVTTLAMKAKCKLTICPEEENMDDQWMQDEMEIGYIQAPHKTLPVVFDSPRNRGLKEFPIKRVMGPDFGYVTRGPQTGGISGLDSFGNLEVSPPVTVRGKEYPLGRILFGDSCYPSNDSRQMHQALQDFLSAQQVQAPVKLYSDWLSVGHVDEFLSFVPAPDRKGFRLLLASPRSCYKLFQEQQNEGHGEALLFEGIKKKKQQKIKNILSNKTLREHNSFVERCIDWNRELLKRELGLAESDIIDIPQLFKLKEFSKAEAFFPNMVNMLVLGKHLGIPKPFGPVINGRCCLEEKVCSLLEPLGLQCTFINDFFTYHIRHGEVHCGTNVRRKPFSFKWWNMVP

SMILES | IC50 [µM]
COc1cc(C(=O)N2CC3CCC2[C@@H]3N)cc2nc(-c3cc4ccccc4n3CC3CC3)n(Cc3cnn(-c4cccc(C)n4)c3)c12 (stereo partly drawn) [Example 381, (7R)-2-{2-[1-(cyclopropylmethyl)-1H-indol-2-yl]-7-methoxy-1-{[1-(6-methylpyridin-2-yl)-1H-pyrazol-4-yl]methyl}-1H-1,3-benzodiazole-5-carbonyl}-2-azabicydo[2.2.1]heptan-7-amine] | 0.037
COc1cc(C(=O)N2C[C@H](N)C[C@@H](F)C2)cc2nc(-c3cc4cccnc4n3CC3CC3)n(Cc3cnn(-c4cccnc4O)c3)c12 [Example 382, 3-[4-({5-[(3R,5R)-3-amino-5-fluoropiperidine-1-carbonyl]-2-[1-(cyclopropylmethyl)-1H-pyrrolo[2,3-b]pyridin-2-yl]-7-methoxy-1H-1,3-benzodiazol-1-yl}methyl)-1H-pyrazol-1-yl]pyridin-2-ol] | 0.041
COc1cc(C(=O)N2CC3CCC2[C@@H]3N)cc2nc(-c3cc4cccnc4n3CC3CC3)n(Cc3cnn(-c4cncc(Cl)c4)c3)c12 (stereo partly drawn) [Example 383, (7R)-2-(1-{[1-(5-chloropyridin-3-yl)-1H-pyrazol-4-yl]methyl}-2-[1-(cyclopropylmethyl)-1H-pyrrolo[2,3-b]pyridin-2-yl]-7-methoxy-1H-1,3-benzodiazole-5-carbonyl)-2-azabicyclo[2.2.1]heptan-7-amine] | 0.041
COc1cc(C(=O)N2CC3CCC2[C@@H]3N)cc2nc(-c3cc4ccccc4n3CC3CC3)n(Cc3cnn(-c4cccnc4O)c3)c12 (stereo partly drawn) [Example 384, 3-[4-({5-[(7R)-7-amino-2-azabicyclo[2.2.1]heptane-2-carbonyl]-2-[1-(cyclopropylmethyl)-1H-indol-2-yl]-7-methoxy-1H-1,3-benzodiazol-1-yl}methyl)-1H-pyrazol-1-yl]pyridin-2-ol] | 0.041
COc1cc(C(=O)N2CC3CCC2[C@@H]3N)cc2nc(-c3cc4ccccc4n3CC3CC3)n(Cc3cnn(-c4cccnc4C#N)c3)c12 (stereo partly drawn) [Example 385, 3-[4-({5-[(7R)-7-amino-2-azabicyclo[2.2.1]heptane-2-carbonyl]-2-[1-(cyclopropylmethyl)-1H-indol-2-yl]-7-methoxy-1H-1,3-benzodiazol-1-yl}methyl)-1H-pyrazol-1-yl]pyridine-2-carbonitrile] | 0.042
COc1cc(C(=O)N2C[C@H](N)C[C@@H](F)C2)cc2nc(-c3cc4cccnc4n3CC3CC3)n(Cc3cnn(-c4ccc(C#N)cn4)c3)c12 [Example 386, 6-[4-({5-[(3R,5R)-3-amino-5-fluoropiperidine-1-carbonyl]-2-[1-(cyclopropylmethyl)-1H-pyrrolo[2,3-b]pyridin-2-yl]-7-methoxy-1H-1,3-benzodiazol-1-yl}methyl)-1H-pyrazol-1-yl]pyridine-3-carbonitrile] | 0.042
COc1cc(C(=O)N2CC3CCC2[C@@H]3N)cc2nc(-c3cc4ccccc4n3CC3CC3)n(Cc3cnn(-c4ccc(C(F)F)nc4)c3)c12 (stereo partly drawn) [Example 387, (7R)-2-{2-[1-(cyclopropylmethyl)-1H-indol-2-yl]-1-({1-[6-(difluoromethyl)pyridin-3-yl]-1H-pyrazol-4-yl}methyl)-7-methoxy-1H-1,3-benzodiazole-5-carbonyl}-2-azabicyclo[2.2.1]heptan-7-amine] | 0.042
COc1cc(C(=O)N2CC3CCC2[C@@H]3N)cc2nc(-c3cc4ccccc4n3CC3CC3)n(Cc3cnn(-c4cccc(O)n4)c3)c12 (stereo partly drawn) [Example 388, 6-[4-({5-[(7R)-7-amino-2-azabicyclo[2.2.1]heptane-2-carbonyl]-2-[1-(cyclopropylmethyl)-1H-indol-2-yl]-7-methoxy-1H-1,3-benzodiazol-1-yl}methyl)-1H-pyrazol-1-yl]pyridin-2-ol] | 0.043
COc1cc(C(=O)N2C[C@H](N)C[C@@H](F)C2)cc2nc(-c3cc4cccnc4n3CC3CC3)n(Cc3cnn(-c4cccc(Cl)n4)c3)c12 [Example 389, (3R,5R)-1-(1-{[1-(6-chloropyridin-2-yl)-1H-pyrazol-4-yl]methyl}-2-[1-(cyclopropylmethyl)-1H-pyrrolo[2,3-b]pyridin-2-yl]-7-methoxy-1H-1,3-benzodiazole-5-carbonyl)-5-fluoropiperidin-3-amine] | 0.043
COc1cc(C(=O)N2CC3CCC2[C@@H]3N)cc2nc(-c3cc4cccnc4n3CC3CC3)n(Cc3cnn(CC#N)c3)c12 (stereo partly drawn) [Example 390, 2-[4-({5-[(7R)-7-amino-2-azabicyclo[2.2.1]heptane-2-carbonyl]-2-[1-(cyclopropylmethyl)-1H-pyrrolo[2,3-b]pyridin-2-yl]-7-methoxy-1H-1,3-benzodiazol-1-yl}methyl)-1H-pyrazol-1-yl]acetonitrile] | 0.045
COc1cc(C(=O)N2C[C@H](N)C[C@@H](F)C2)cc2nc(-c3cc4cccnc4n3CC3CC3)n(Cc3cnn(-c4cncc(C#N)c4)c3)c12 [Example 391, 5-[4-({5-[(3R,5R)-3-amino-5-fluoropiperidine-1-carbonyl]-2-[1-(cyclopropylmethyl)-1H-pyrrolo[2,3-b]pyridin-2-yl]-7-methoxy-1H-1,3-benzodiazol-1-yl}methyl)-1H-pyrazol-1-yl]pyridine-3-carbonitrile] | 0.047
COc1cc(C(=O)N2CC3CCC2[C@@H]3N)cc2nc(-c3cc4ccccc4n3CC3CC3)n(Cc3cnn(-c4cc(Cl)ccn4)c3)c12 (stereo partly drawn) [Example 392, (7R)-2-(1-{[1-(4-chloropyridin-2-yl)-1H-pyrazol-4-yl]methyl}-2-[1-(cyclopropylmethyl)-1H-indol-2-yl]-7-methoxy-1H-1,3-benzodiazole-5-carbonyl)-2-azabicyclo[2.2.1]heptan-7-amine] | 0.048
COc1cc(C(=O)N2C[C@H](N)C[C@@H](F)C2)cc2nc(-c3cc4cccnc4n3CC3CC3)n(Cc3cnn(-c4ncc(F)cc4F)c3)c12 [Example 393, (3R,5R)-1-{2-[1-(cyclopropylmethyl)-1H-pyrrolo[2,3-b]pyridin-2-yl]-1-{[1-(3,5-difluoropyridin-2-yl)-1H-pyrazol-4-yl]methyl}-7-methoxy-1H-1,3-benzodiazole-5-carbonyl}-5-fluoropiperidin-3-amine] | 0.049
COc1cc(C(=O)N2CC3CCC2[C@@H]3N)cc2nc(-c3cc4ccccc4n3CC3CC3)n(Cc3cnn(-c4cnc(C#N)c(F)c4)c3)c12 (stereo partly drawn) [Example 394, 5-[4-({5-[(7R)-7-amino-2-azabicyclo[2.2.1]heptane-2-carbonyl]-2-[1-(cyclopropyimethyl)-1H-indol-2-yl]-7-methoxy-1H-1,3-benzodiazol-1-yl}methyl)-1H-pyrazol-1-yl]-3-fluoropyridine-2-carbonitrile] | 0.05
COc1cc(C(=O)N2CC3CCC2[C@@H]3N)cc2nc(-c3cc4cccnc4n3CC3CC3)n(Cc3cnn(-c4cccnc4)c3)c12 (stereo partly drawn) [Example 395, (7R)-2-{2-[1-(cyclopropylmethyl)-1H-pyrrolo[2,3-b]pyridin-2-yl]-7-methoxy-1-{[1-(pyridin-3-yl)-1H-pyrazol-4-yl]methyl}-1H-1,3-benzodiazole-5-carbonyl}-2-azabicyclo[2.2.1]heptan-7-amine] | 0.05
COc1cc(C(=O)N2CC3CCC2[C@@H]3N)cc2nc(-c3cc4ccccc4n3CC3CC3)n(Cc3cnn(-c4ccc[n+]([O-])c4)c3)c12 (stereo partly drawn) [Example 396, 3-[4-({5-[(7R)-7-amino-2-azabicyclo[2.2.1]heptane-2-carbonyl]-2-[1-(cyclopropylmethyl)-1H-indol-2-yl]-7-methoxy-1H-1,3-benzodiazol-1-yl}methyl)-1H-pyrazol-1-yl]pyridin-1-ium-1-olate] | 0.051
COc1cc(C(=O)N2C[C@H](N)C[C@@H](F)C2)cc2nc(-c3cc4cccnc4n3CC3CC3)n(Cc3cnn(-c4cnccn4)c3)c12 [Example 397, (3R,5R)-1-{2-[1-(cyclopropylmethyl)-1H-pyrrolo[2,3-b]pyridin-2-yl]-7-methoxy-1-{[1-(pyrazin-2-yl)-1H-pyrazol-4-yl]methyl}-1H-1,3-benzodiazole-5-carbonyl}-5-fluoropiperidin-3-amine] | 0.053
COc1cc(C(=O)N2CC3CCC2[C@@H]3N)cc2nc(-c3cc4cccnc4n3CC3CC3)n(Cc3cnn(-c4ncccn4)c3)c12 (stereo partly drawn) [Example 398, (7R)-2-{2-[1-(cyclopropylmethyl)-1H-pyrrolo[2,3-b]pyridin-2-yl]-7-methoxy-1-{[1-(pyrimidin-2-yl)-1H-pyrazol-4-yl]methyl}-1H-1,3-benzodiazole-5-carbonyl}-2-azabicyclo[2.2.1]heptan-7-amine] | 0.054
COc1cc(C(=O)N2CC3CCC2[C@@H]3N)cc2nc(-c3cc4ccccc4n3CC3CC3)n(Cc3cnn(-c4ccc(O)nc4)c3)c12 (stereo partly drawn) [Example 399, 5-[4-({5-[(7R)-7-amino-2-azabicyclo[2.2.1]heptane-2-carbonyl]-2-[1-(cyclopropylmethyl)-1H-indol-2-yl]-7-methoxy-1H-1,3-benzodiazol-1-yl}methyl)-1H-pyrazol-1-yl]pyridin-2-ol] | 0.057
COc1cc(C(=O)N2CC3CCC2[C@@H]3N)cc2nc(-c3cc4cccnc4n3CC3CC3)n(Cc3cnn(-c4ccccn4)c3)c12 (stereo partly drawn) [Example 400, (7R)-2-{2-[1-(cyclopropylmethyl)-1H-pyrrolo[2,3-b]pyridin-2-yl]-7-methoxy-1-{[1-(pyridin-2-yl)-1H-pyrazol-4-yl]methyl}-1H-1,3-benzodiazole-5-carbonyl)-2-azabicyclo[2.2.1]heptan-7-amine] | 0.057
COc1cc(C(=O)N2C[C@H](N)C[C@@H](F)C2)cc2nc(-c3cc4cccnc4n3CC3CC3)n(Cc3cnn(-c4ncccn4)c3)c12 [Example 401, (3R,5R)-1-{2-[1-(cyclopropylmethyl)-1H-pyrrolo[2,3-b]pyridin-2-yl]-7-methoxy-1-{[1-(pyrimidin-2-yl)-1H-pyrazol-4-yl]methyl}-1H-1,3-benzodiazole-5-carbonyl}-5-fluoropiperidin-3-amine] | 0.059
